{"source": "patent EP2999467B1", "about": "“USE OF A COMBINATION OF TWO COMPOUNDS FOR THE TREATMENT AND/OR PREVENTION OF BONE DISORDERS” (Institut National de la Recherche Agronomique (INRA), priority 2013, dated 2014)", "key": {"RAW264.7": {"system": "RAW264.7", "assay": "TRAP staining: RANKL-induced osteoclast differentiation, count of multinucleated TRAP+ cells", "format": "cell-based", "description": "Les préostéoblastes primaires ont été isolés à partir de la calotte crânienne de rats Wistar nouveaux-nés par digestion enzymatique comme précédemment décrit [Declercq, H., Van den Vreken, N., De Maeyer, E., Verbeeck, R., Schacht, E., De Ridder, L., and Cornelissen, M. (2004). Isolation, proliferation and differentiation of osteoblastic cells to study cell/biomaterial interactions: comparison of different isolation techniques and source. Biomaterials 25, 757-68.]. Les précurseurs d'ostéoclastes RAW264.7 ont été obtenus auprès de l'ATCC (Manassas, VA, USA). Les préostéoblastes et les RAW264.7 ont été cultivés dans du milieu α-MEM (Invitrogen, Carlsbad, CA, USA) supplémenté avec 10% de SVF décomplémenté et de 100 unités/ml de pénicilline-streptomycine.\nPour la coloration TRAP, 60.000 cellules RAW264.7 ont été ensemencées dans des puits de plaques 12 puits pendant 12 heures puis traitées avec du DMSO/éthanol comme témoin ou de la fisétine (5 µM dans le DMSO) ou du DHA (50µM dans l'éthanol) ou la combinaison des deux (Fisétine 5 µM et DHA 50 µM) pendant 3 heures. Les cellules ont ensuite été induites à se différencier en présence de RANKL (50 ng/ml) avec du DMSO/éthanol ou de la fisétine (5 µM) ou du DHA (50 µM) ou la combinaison des deux (Fisétine 5 µM et DHA 50 µM) durant 4 jours avec un changement de milieux après 2 jours. De la BSA délipidée et sans endotoxines a été utilisée pour solubiliser le DHA avec un rapport 1/5 (BSA/DHA).\nLa coloration TRAP a été réalisée en utilisant le kit « leukocyte acid phosphatase » (Sigma-Aldrich) selon les recommandations du fournisseur après fixation des cellules. Les cellules TRAP+ multinucléées ont ensuite été comptées."}, "[1]": {"system": "perte osseuse induite par ovariectomie", "assay": "Ovariectomy-induced bone loss: bone micro-architecture (micro-CT)", "format": "in vivo, souris C57BL/6J", "procedure": "Tout au long de l'étude, les animaux ont été logés dans un environnement contrôlé (12:12 h cycle lumière-obscurité, 20-22 ° C, 50-60% d'humidité relative, 1 souris par cage en plastique avec un accès libre à l'eau. Les souris C57BL/6J ont été livrées 2 semaines avant l'étude pour l'acclimatation à notre environnement sous régime standard semi-purifié. Pour toutes les expériences, les souris de 8 semaines (n=12/groupe) ont été gavées avec le véhicule (1% d'éthanol, 0,2% hydroxypropylcellulose dans de l'eau distillée) ou avec la fisétine (5 à 50 mg/kg dans le véhicule) pendant une semaine. Ensuite, pour l'expérience OVX, les souris ont été pseudo-opérées ou ovariectomisées bilatéralement et ont reçu quotidiennement par gavage le véhicule ou la fisétine pendant 4 semaines. A la fin de l'expérimentation, le sérum, les cornes utérines, les tibias et les fémurs ont été recueillis pour analyse. Pour l'expérience de perte osseuse induite par LPS, le véhicule (PBS) ou le LPS (sérotype 026: B6, 25mg/kg) ont été injectés par voie sous-cutanée au niveau de la calotte crânienne, une fois par semaine pendant 3 semaines sous anesthésie. Durant ces 3 semaines, les souris ont reçu soit le véhicule (1% d'éthanol, 0,2% hydroxypropylcellulose dans de l'eau distillée) soit la fisétine quotidiennement par gavage. A la fin de l'expérimentation, le sérum, les tibias et les fémurs ont été recueillis pour analyse. Des expériences similaires ont été conduites et arrêtés 24 heures après la première injection de LPS et les fémurs ont été prélevés pour extraction des ARNs et l'analyse en qRT-PCR.\nPour effectuer une mesure, l'échantillon a été monté sur un plateau tournant pouvant être déplacé automatiquement dans le sens axial (pas angulaire: 0,675°/reconstruction plage angulaire: 186.30°). Un filtre en aluminium (0,5 mm d'épaisseur) a été placé entre la source de rayons X et l'échantillon. La micro-architecture (spongieuse secondaire) a été analysée en utilisant le rayonnement X micro-CT SkyScan 1072 (BRUKER-microCT, Kontich, Belgique). Des photos de 1024 * 1024 pixels ont été obtenues en utilisant les paramètres 37kV et 215µA. Selon les paramètres de la caméra, les pixels mesurent 5.664µm menant à un voxel de 1.817 * 10-7mm^3. Le calcul des paramètres histomorphométriques a été réalisé en utilisant les logiciels ctan ® et Nrecon ® (version 1.11. Et 1.6.1.7 respectivement)."}}, "data": [{"smiles": "O=c1c(O)c(-c2ccc(O)c(O)c2)oc2cc(O)ccc12", "note": "[Fisétine, 3,3',4',7-tétrahydroxyflavone]", "values": [{"measurement": "inhibition at 5 µM", "setting": "RAW264.7; Mus musculus, RAW264.7, 96 h, Fisétine 5µM, RANKL 50 ng/ml, 4 days, vs RANKL condition, read-out: inhibition de l'induction par RANKL de la formation de cellules multinucléées TRAP+ (ostéoclastes)", "value": 45, "unit": "%"}, {"measurement": "ostéoclastes/cm^2", "setting": "RAW264.7; condition RANKL+Fisétine (5µM), RANKL alone 735+/-251", "value": "404+/-148 ostéoclastes/cm^2"}, {"measurement": "augmentation de l'épaisseur des trabécules par rapport aux animaux OVX", "setting": "[1]; OVX + Fisétine 25 mg/kg", "value": "3,55%"}, {"measurement": "augmentation du nombre de trabécules par rapport aux animaux OVX", "setting": "[1]; OVX + Fisétine 25 mg/kg", "value": "16,31%"}, {"measurement": "augmentation du volume osseux/volume total par rapport aux animaux OVX", "setting": "[1]; OVX + Fisétine 25 mg/kg", "value": "20,37%"}, {"measurement": "Nombre de trabécules", "setting": "[1]; OVX + Fisétine 25mg/kg, OVX 1.90 ± 0.22", "value": "2.21 ± 0.12", "unit": "mm^-1"}, {"measurement": "Volume osseux/Volume total", "setting": "[1]; OVX + Fisétine 25mg/kg, OVX 13.40 ± 1.74", "value": "16.13 ± 0.96", "unit": "%"}, {"measurement": "Epaisseur des trabécules", "setting": "[1]; OVX + Fisétine 25mg/kg, OVX 70.35 ± 1.295", "value": "72.85 ± 1.563", "unit": "µm"}, {"measurement": "Espace inter-trabéculaire", "setting": "[1]; OVX + Fisétine 25mg/kg, OVX 285.68 ± 54,69", "value": "265.50 ± 29.41", "unit": "µm"}]}]}
